Data set [1] addresses EGFR (d746-750 (d19)/T790M) (Homo sapiens (Human), UniProt P00533, DEL746-750/T790M). Nature of the data set: Inhibitory activity for EGFR (d746-750 (d19)/T790M) kinase. The class given is biochemical. The conditions noted are these: ATP 5 μM. The gist of the method: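 Recombinant EGFR d746-750/T790M (0.003 ng/μL final) preincubated 30 min with compound (10 to 0.0024 nM, 4-fold steps), then 5 μM ATP and 0.1 μM ULight-poly GT added for 2 h at room temperature. EDTA stop, Eu-anti-phosphotyrosine TR-FRET read (665 nm); IC50 by four-parameter fit.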

In data set [2] the target is EGFR (d746-750/T790M/C797S) (Homo sapiens (Human), UniProt P00533, C797S/DEL746-750/T790M). Nature of the data set: Inhibitory activity for EGFR (d746-750/T790M/C797S) kinase. In kind it is biochemical. The conditions noted are these: ATP 5 μM; read-out: EGFR(d19/T790M/C797S) (IC50). The gist of the method:
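EGFR d746-750/T790M/C797S (0.03 ng/μL final) preincubated 30 min with compound (10 nM–0.0024 nM, 4-fold, 7 points). Reaction with 5 μM ATP and 0.1 μM ULight-poly GT, 2 h at room temperature; EDTA stop, Eu-anti-phosphotyrosine TR-FRET read at 665 nm, IC50 by four-parameter fit.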

In data set [3] the test system is BAF3-EGFR (L858R/T790M/C797S) cells. Nature of the data set: Inhibition of proliferation of BAF3-EGFR (L858R/T790M/C797S) cells, CCK-8. As to conditions: Ba/F3 EGFR, 72 h, read-out: BAF3(EGFR T790M L858R C797S) cell inhibitory activity IC50. In kind it is cell-based. The gist of the method: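 BaF3 EGFR L858R/T790M/C797S cells seeded at 1.5×10^5 cells/mL in RPMI + 10% FBS, 37 °C, compound added after overnight, duplicates. Viability by CCK-8; % inhibition vs untreated and blank, IC50 by four-parameter fit.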

Data set [4] concerns PC-9 EGFR-Del19-T790M-C797S cells. As to the kind of experiment: Inhibition of proliferation of PC-9-EGFR (Del19 T790M C797S) cells, CCK-8. The class given is cell-based. The conditions noted are these: 72 h, read-out: PC-9-EGFR (Del19 T790M C797S) cell inhibitory activity IC50. The procedure: PC-9 EGFR-Del19-T790M-C797S cells in the logarithmic growth phase and good conditions were taken, washed with PBS, digested with pancreatin, terminated with a complete medium, collected and added to a centrifuge tube, adjusted to a cell density of 2×10^4 cells/mL, and seeded in a 96-well plate (100 μL/well). Meanwhile, compounds were loaded using a nanoliter pipettor resulting in the final concentrations of the compounds of 1000 nM-0.06 nM, and a control was set, replicate wells for each concentration. After 72 h of incubation in the cell incubator, the assay reagent CCK-8 (manufacturer: Dojindo Laboratories, Beijing; 10 μL/well) was added. After 2 h of incubation in the cell incubator, absorbance was measured at 450 nm on a PerkinElmer Envision microplate reader, and the inhibition rate was calculated.
(§1) Inhibition rate (%)=(mean value of negative control group-mean value of experimental group)/(mean value of negative control group−mean value of blank group)×100%.
(§2) A dose-response curve was fitted by four-parameter analysis, with the logarithm of compound concentration serving as abscissa and inhibition rate serving as ordinate, such that IC50 was calculated.

A short description of data set [5]: In vitro stability in liver microsomes. In kind it is in vitro ADME. The conditions noted are these: Human liver microsome. The protocol:
300 μL of the final incubation system contains 30 μL of liver microsomes (protein concentration: 0.15 mg/mL), 30 μL of NADPH+MgCl2, 3 μL of the test compound (in acetonitrile), and 237 μL of PBS buffer (pH 7.4). The proportion of the organic solvent (acetonitrile) was 1%. Samples were prepared in duplicate of 0.3 mL for each species (e.g., human or mouse liver microsomes). Tubes each containing 270 μL of a mixed solution of substrate and enzyme […] were pre-incubated at 37° C. for 5 min. 30 μL of NADPH+MgCl2 was added and the mixture was mixed. 50 μL of the mixture was taken at 0 min, 15 min, 30 min, and 60 min, and 300 μL of glacial acetonitrile containing an internal standard was added to terminate the reaction.
50 μL of the incubated sample was added with 300 μL of glacial acetonitrile containing an internal standard (20 ng/mL diazepam) for precipitation. The mixture was vortexed for 5 min, and centrifuged (12,000 rpm, 4° C.) for 10 min. 75 μL of supernatant was taken and diluted with 75 μL of ultrapure water. After being homogeneously mixed, 0.5 μL of the resulting sample was injected for analysis.

Data set [6] relates to BAF3-EGFR (del19/T790M/C797S) cells. Nature of the data set: Inhibition of proliferation of BAF3-EGFR (Del19/T790M/C797S) cells, CCK-8. The class given is cell-based. The conditions noted are these: Ba/F3 EGFR-Del19/T790M/C797S, 72 h, read-out: BAF3(EGFR T790M Del19 C797S) cell inhibitory activity IC50. The protocol: A flask of BAF3-EGFR (del19/T790M/C797S) cells in the logarithmic growth phase and good conditions was taken, and the cells were collected and added to a centrifuge tube. 20 μL of cells were taken and counted, and the required number of cells (mL) was pipetted and centrifuged at 1200 rpm for 3 min. The supernatant was discarded, and an appropriate amount of plating medium (RPMI medium+10% FBS) was added to adjust the cell density to 1.0×10^5 cells/mL. The cells were seeded on a 96-well plate at 100 μL/well using a multi-channel pipette and cultured in a cell incubator at 37° C., 5% CO2 with saturated humidity. After overnight incubation, compounds were loaded using a nanoliter pipettor, 2 duplicate wells were set for each concentration, and cells without compound added were used as negative controls.
as §1, §2

Chain of EGFR (d746-750 (d19)/T790M) (P00533 other isoform, or with tags, fused parts or gaps T790M/del 1-668/del 746-750 limits assumed): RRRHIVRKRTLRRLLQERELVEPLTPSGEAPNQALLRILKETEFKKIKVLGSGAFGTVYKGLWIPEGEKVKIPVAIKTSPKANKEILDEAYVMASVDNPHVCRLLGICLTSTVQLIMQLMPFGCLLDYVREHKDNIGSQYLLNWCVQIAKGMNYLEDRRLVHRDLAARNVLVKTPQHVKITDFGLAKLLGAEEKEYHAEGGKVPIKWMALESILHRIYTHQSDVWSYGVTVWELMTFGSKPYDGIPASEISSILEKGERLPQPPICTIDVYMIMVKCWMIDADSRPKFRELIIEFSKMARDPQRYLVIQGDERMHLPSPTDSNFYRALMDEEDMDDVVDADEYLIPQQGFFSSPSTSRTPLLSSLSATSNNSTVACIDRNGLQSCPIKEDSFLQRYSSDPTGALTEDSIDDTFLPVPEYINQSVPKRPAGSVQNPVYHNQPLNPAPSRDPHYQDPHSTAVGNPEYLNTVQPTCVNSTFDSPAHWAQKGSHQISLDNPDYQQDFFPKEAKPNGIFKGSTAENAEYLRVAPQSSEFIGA
Chain of EGFR (d746-750/T790M/C797S) (P00533 other isoform, or with tags, fused parts or gaps T790M/C797S/del 1-694/del 746-750 limits assumed): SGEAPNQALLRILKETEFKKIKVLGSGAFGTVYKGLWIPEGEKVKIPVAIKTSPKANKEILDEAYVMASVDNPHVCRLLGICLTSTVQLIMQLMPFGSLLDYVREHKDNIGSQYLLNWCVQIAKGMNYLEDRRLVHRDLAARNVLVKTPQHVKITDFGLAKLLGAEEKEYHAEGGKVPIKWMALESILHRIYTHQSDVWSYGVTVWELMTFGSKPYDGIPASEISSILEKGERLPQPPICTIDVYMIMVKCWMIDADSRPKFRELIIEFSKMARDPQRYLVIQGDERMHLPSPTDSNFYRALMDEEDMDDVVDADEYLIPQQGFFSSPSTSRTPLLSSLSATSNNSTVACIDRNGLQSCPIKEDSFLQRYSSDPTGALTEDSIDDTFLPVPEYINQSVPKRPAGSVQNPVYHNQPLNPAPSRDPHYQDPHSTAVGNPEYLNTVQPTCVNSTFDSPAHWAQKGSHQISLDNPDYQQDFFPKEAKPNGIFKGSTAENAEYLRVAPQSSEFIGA

With `Cc1cc2cc(n1)-c1cnn(C)c1OCCC[C@@H](C1CC1)CN1/C(=N/C2=O)Nc2cc(NC3CCN(C)CC3)ccc21` [Example 10], the IC50 is 0.014 nM in data set [1], 0.023 nM in data set [2], below 5 nM in data set [3] and below 50 nM in data set [4]. Moreover, the “Stability in liver microsomes (residual %, T = 60 min)” value (shortened to “Stability … (residual %, T = 60 min)”) in data set [5] worked out at 94.30%.
Take `Cc1cc2cc(n1)-c1cnn(C)c1OCCC[C@@H](C1CC1)CN1/C(=N/C2=O)Nc2ccc(NC3CCN(C)CC3)cc21` [Example 20]: the IC50 in data set [1] came out at 0.012 nM; in data set [2] it was 0.02 nM. Also, the “Stability … (residual %, T = 60 min)” value in data set [5] amounted to 73.66%.
Consider `Cc1cc2cc(n1)-c1cnn(C)c1OCCC[C@@H](C1CC1)CN1/C(=N/C2=O)Nc2cc(NC3CN(C)C3)ccc21` [Example 33], for which the results for the IC50 in data set [1] and in data set [2] were 0.0098 nM and 0.015 nM, respectively. Moreover, in data set [5], the “Stability … (residual %, T = 60 min)” value is reported as 83.39%.
As for `Cc1cc2cc(n1)-c1cnn(C)c1OCCC[C@@H](C1CC1)CN1/C(=N/C2=O)Nc2cc(NCCCN(C)C)ccc21` [Example 44], the IC50 in data set [1] was 0.0081 nM; in data set [2], 0.012 nM; in data set [3] it was below 5 nM; in data set [6], below 1 nM; in data set [4], below 50 nM. Also, the “Stability … (residual %, T = 60 min)” value in data set [5] was 80.24%.
For the compound `Cc1cc2cc(n1)-c1cnn(C)c1OCCC[C@@H](C1CC1)CN1/C(=N/C2=O)Nc2cc(NC3CCN(C(C)C)CC3)ccc21` [Example 47], the IC50 in data set [1] is 0.017 nM; in data set [2] it was 0.027 nM; in data set [3], below 5 nM; in data set [6], below 1 nM; in data set [4], below 50 nM. In addition, the “Stability … (residual %, T = 60 min)” value in data set [5] was 96.11%.
On to `Cc1cc2cc(n1)-c1cnn(C)c1OCCC[C@@H](C1CC1)CN1/C(=N/C2=O)Nc2cc(NCCCN3CCCC3)ccc21` [Example 70], for which the figures for the IC50 in data set [1], in data set [2] and in data set [3] were 0.013 nM, 0.04 nM and below 5 nM, respectively. Also, in data set [5], the “Stability … (residual %, T = 60 min)” value is reported as 81.11%.
Turning to `Cc1cc2cc(n1)-c1cnn(C)c1OCCC[C@@H](C1CC1)CN1/C(=N/C2=O)Nc2cc(NCCN3CCCC3)ccc21` [Example 72], the IC50 was 0.011 nM in data set [1], 0.013 nM in data set [2], below 5 nM in data set [3] and below 1 nM in data set [6]. Besides, the “Stability … (residual %, T = 60 min)” value in data set [5] was 64.73%.
For the compound `Cc1cc2cc(n1)-c1cnn(C)c1OCCC[C@@H](C1CC1)CN1/C(=N/C2=O)Nc2ccc(N[C@H]3CC[C@@H](N(C)C)CC3)cc21` [Example 99], the IC50 was 0.091 nM in data set [1], below 5 nM in data set [3] and below 50 nM in data set [4]. In addition, the “Stability … (residual %, T = 60 min)” value in data set [5] was determined as 84.54%.
Taken in the same sequence, the figures for `Cc1cc2cc(n1)-c1cnn(C)c1OCCC[C@@H](C1CC1)CN1/C(=N/C2=O)Nc2ccc(N[C@H]3CC[C@H](N(C)C)CC3)cc21` [Example 100] were 0.092 nM, below 5 nM, below 50 nM and 82.55%.
Turning to `Cc1cc2cc(n1)-c1cnn(C)c1OCCC[C@@H](C1CC1)CN1/C(=N/C2=O)Nc2ccc(NC(=O)CCN(C)C)cc21` [Example 112], the results for the IC50 in data set [2], in data set [3] and in data set [4] were 0.063 nM, below 5 nM and below 50 nM, respectively. Also, the “Stability … (residual %, T = 60 min)” value in data set [5] turned out to be 71.24%.
Consider `Cc1cc2cc(n1)-c1cnn(C)c1OCCC[C@@H](C1CC1)CN1/C(=N/C2=O)Nc2cc(N[C@H]3C[C@@H](N(C)C)C3)ccc21` [Example 125], for which the IC50 in data set [2] came to 0.08 nM. In data set [5], the “Stability … (residual %, T = 60 min)” value came to 93.95%.
With `Cc1cc2cc(n1)-c1cnn(C)c1OCCC[C@@H](C1CC1)CN1/C(=N/C2=O)Nc2cc(N[C@H]3C[C@H](N(C)C)C3)ccc21` [Example 126], the IC50 in data set [2] is 0.073 nM; in data set [3], below 5 nM; in data set [4], below 50 nM. In addition, in data set [5], the “Stability … (residual %, T = 60 min)” value is reported as 83.66%.
Take `Cc1cc2cc(n1)-c1cnn(C)c1OCCC[C@@H](C1CC1)CN1/C(=N/C2=O)Nc2ccc(N[C@H]3C[C@@H](N(C)C)C3)cc21` [Example 127]: the IC50 is 0.12 nM in data set [1] and below 50 nM in data set [4]. In data set [5], the “Stability … (residual %, T = 60 min)” value is recorded as 75.00%.
As for `Cc1cc2cc(n1)-c1cnn(C)c1OCCC[C@@H](C1CC1)CN1/C(=N/C2=O)Nc2cc(N[C@@H]3CC[C@@H](N(C)C)C3)ccc21` [Example 129], in data set [2], the IC50 came to 0.065 nM. Also, the “Stability … (residual %, T = 60 min)” value in data set [5] is listed as 92.24%.
For `Cc1cc2cc(n1)-c1cnn(C)c1OCCC[C@@H](C1CC1)CN1/C(=N/C2=O)Nc2ccc(N[C@@H]3CC[C@@H](N(C)C)C3)cc21` [Example 130], the IC50 in data set [2] was 0.056 nM; in data set [3], below 5 nM. Further, the “Stability … (residual %, T = 60 min)” value in data set [5] is listed as 56.81%.
Take `Cc1cc2cc(n1)-c1cnn(C)c1OCCC[C@@H](C1CC1)CN1/C(=N/C2=O)Nc2cc(N[C@H]3CC[C@@H](N(C)C)C3)ccc21` [Example 131]: the figures for the IC50 in data set [2], in data set [3] and in data set [4] were 0.08 nM, below 5 nM and below 50 nM, respectively. Also, the “Stability … (residual %, T = 60 min)” value in data set [5] is recorded as 95.64%.
As for `Cc1cc2cc(n1)-c1cnn(C)c1OCCC[C@@H](C1CC1)CN1/C(=N/C2=O)Nc2ccc(N[C@H]3CC[C@@H](N(C)C)C3)cc21` [Example 132], the IC50 in data set [2] was 0.066 nM; in data set [3], below 5 nM; in data set [4] it was below 50 nM. For the same compound, the “Stability … (residual %, T = 60 min)” value in data set [5] was 63.76%.
For the compound `Cc1cc2cc(n1)-c1cnn(C)c1OCCC[C@@H](C1CC1)CN1/C(=N/C2=O)Nc2cc(N[C@@H]3CC[C@H](N(C)C)C3)ccc21` [Example 133], the values for the IC50 in data set [2] and in data set [3] were 0.097 nM and below 5 nM, respectively. For the same compound, the “Stability … (residual %, T = 60 min)” value in data set [5] was found to be 95.34%.
With `Cc1cc2cc(n1)-c1cnn(C)c1OCCC[C@@H](C1CC1)CN1/C(=N/C2=O)Nc2ccc(N[C@@H]3CC[C@H](N(C)C)C3)cc21` [Example 134], the IC50 in data set [2] is 0.069 nM; in data set [3] it was below 5 nM. In data set [5], the “Stability … (residual %, T = 60 min)” value worked out at 65.19%.
For the compound `Cc1cc2cc(n1)-c1cnn(C)c1OCCC[C@@H](C1CC1)CN1/C(=N/C2=O)Nc2cc(N[C@H]3CC[C@H](N(C)C)C3)ccc21` [Example 135], the IC50 was 0.062 nM in data set [2], below 5 nM in data set [3] and below 50 nM in data set [4]. For the same compound, the “Stability … (residual %, T = 60 min)” value in data set [5] is on record as 97.30%.

These data come from patent US20250034165A1, “COMPOUND CONTAINING CYCLOALKYL OR HALOALKYL” (CHIA TAI TIANQING PHARMACEUTICAL GROUP CO., LTD., priority 2021, published 2025).
